Results: patent US11447466B2, “Substituted indole compounds useful as inhibitors of TLR7/8/9” (BRISTOL-MYERS SQUIBB COMPANY, priority 2017, dated 2022)

Assays:
Type in all cases: cell-based
[1] = target: T1, human TLR7 (Homo sapiens, UniProt Q9NYK1); test: TLR7 inhibition reporter assay (HEK-Blue SEAP reporter, gardiquimod stimulation); details: HEK-Blue cells overexpressing human TLR7, SEAP reporter, gardiquimod 7.5 μM, 22 hour incubation
T1 construct: host or cells: HEK-Blue cells
T1 sequence (Q9NYK1 27-1049): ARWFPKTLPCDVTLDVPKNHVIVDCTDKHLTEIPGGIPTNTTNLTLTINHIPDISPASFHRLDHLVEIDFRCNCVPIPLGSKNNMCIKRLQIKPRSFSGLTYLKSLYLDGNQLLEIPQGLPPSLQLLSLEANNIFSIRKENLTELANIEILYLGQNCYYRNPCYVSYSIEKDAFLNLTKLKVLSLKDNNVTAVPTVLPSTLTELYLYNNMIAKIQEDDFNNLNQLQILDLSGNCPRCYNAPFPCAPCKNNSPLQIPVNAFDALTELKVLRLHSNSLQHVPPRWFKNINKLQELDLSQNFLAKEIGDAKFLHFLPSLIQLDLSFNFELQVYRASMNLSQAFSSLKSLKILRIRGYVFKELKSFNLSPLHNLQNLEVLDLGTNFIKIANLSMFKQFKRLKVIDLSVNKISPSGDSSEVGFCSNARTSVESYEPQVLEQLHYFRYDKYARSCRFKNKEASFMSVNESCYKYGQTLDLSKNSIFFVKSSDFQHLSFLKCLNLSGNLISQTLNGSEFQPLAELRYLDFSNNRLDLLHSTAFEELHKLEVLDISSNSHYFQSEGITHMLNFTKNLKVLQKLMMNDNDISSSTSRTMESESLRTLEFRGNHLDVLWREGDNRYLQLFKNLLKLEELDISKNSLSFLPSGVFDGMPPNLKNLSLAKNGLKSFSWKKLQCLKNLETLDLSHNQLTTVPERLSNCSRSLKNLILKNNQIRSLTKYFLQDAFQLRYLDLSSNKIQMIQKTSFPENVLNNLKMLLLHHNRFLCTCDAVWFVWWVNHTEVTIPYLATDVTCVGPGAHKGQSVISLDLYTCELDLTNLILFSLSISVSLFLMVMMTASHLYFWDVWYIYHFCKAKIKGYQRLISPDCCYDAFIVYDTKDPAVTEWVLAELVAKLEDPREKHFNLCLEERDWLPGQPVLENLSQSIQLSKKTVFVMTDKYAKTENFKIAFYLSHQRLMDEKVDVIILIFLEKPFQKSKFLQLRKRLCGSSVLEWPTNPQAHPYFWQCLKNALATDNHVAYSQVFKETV
Outline: (§1)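 Agonists used: gardiquimod 7.5 μM (TLR7), R848 15.9 μM (TLR8), ODN2006 5 nM (TLR9), added after 30 min room-temperature compound pre-treatment (0.05 nM–50 μM) of receptor-overexpressing HEK-Blue cells. SEAP reporter (NF-κB/AP-1 driven) read after 22 h at 37 °C; inhibition scaled between agonist+DMSO and reference-inhibitor wells.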

[2] = target: T2, human TLR8 (Homo sapiens, UniProt Q9NR97); test: TLR8 inhibition reporter assay (HEK-Blue SEAP reporter, R848 stimulation); details: HEK-Blue cells overexpressing human TLR8, SEAP reporter, R848 15.9 μM, 22 hour incubation
T2 construct: host or cells: HEK-Blue cells
T2 sequence (Q9NR97 27-1041): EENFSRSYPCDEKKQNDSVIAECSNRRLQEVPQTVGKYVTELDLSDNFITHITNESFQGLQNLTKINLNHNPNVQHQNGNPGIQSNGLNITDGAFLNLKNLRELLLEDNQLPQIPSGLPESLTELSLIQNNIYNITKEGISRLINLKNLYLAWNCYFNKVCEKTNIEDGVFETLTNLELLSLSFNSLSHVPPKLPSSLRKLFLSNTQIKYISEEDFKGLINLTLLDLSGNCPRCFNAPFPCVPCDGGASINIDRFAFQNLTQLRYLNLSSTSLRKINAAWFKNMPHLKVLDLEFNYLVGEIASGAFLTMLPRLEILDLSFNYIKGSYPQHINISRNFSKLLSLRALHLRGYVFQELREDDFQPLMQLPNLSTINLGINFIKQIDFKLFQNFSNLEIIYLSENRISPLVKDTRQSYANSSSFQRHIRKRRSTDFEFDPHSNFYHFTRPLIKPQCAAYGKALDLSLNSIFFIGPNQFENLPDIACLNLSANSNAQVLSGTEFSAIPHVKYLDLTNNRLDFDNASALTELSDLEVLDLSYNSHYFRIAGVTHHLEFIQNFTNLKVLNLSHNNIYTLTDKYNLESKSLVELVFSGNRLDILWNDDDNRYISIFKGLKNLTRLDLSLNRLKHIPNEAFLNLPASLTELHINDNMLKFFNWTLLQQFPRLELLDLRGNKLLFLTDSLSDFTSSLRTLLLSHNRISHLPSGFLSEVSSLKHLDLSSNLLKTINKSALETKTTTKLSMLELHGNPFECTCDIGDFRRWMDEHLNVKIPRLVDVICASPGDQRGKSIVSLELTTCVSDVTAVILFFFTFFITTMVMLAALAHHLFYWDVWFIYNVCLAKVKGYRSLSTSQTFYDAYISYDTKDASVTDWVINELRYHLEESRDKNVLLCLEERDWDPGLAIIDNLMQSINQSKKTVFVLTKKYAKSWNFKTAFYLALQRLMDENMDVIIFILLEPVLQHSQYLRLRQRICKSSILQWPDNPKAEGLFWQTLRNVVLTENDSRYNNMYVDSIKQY
Outline: as §1

[3] = target: T3, human TLR9 (Homo sapiens, UniProt Q9NR96); test: TLR9 inhibition reporter assay (HEK-Blue SEAP reporter, ODN2006 stimulation); details: HEK-Blue cells overexpressing human TLR9, SEAP reporter, ODN2006 5 nM, 22 hour incubation
T3 construct: host or cells: HEK-Blue cells
T3 sequence (Q9NR96 26-1032): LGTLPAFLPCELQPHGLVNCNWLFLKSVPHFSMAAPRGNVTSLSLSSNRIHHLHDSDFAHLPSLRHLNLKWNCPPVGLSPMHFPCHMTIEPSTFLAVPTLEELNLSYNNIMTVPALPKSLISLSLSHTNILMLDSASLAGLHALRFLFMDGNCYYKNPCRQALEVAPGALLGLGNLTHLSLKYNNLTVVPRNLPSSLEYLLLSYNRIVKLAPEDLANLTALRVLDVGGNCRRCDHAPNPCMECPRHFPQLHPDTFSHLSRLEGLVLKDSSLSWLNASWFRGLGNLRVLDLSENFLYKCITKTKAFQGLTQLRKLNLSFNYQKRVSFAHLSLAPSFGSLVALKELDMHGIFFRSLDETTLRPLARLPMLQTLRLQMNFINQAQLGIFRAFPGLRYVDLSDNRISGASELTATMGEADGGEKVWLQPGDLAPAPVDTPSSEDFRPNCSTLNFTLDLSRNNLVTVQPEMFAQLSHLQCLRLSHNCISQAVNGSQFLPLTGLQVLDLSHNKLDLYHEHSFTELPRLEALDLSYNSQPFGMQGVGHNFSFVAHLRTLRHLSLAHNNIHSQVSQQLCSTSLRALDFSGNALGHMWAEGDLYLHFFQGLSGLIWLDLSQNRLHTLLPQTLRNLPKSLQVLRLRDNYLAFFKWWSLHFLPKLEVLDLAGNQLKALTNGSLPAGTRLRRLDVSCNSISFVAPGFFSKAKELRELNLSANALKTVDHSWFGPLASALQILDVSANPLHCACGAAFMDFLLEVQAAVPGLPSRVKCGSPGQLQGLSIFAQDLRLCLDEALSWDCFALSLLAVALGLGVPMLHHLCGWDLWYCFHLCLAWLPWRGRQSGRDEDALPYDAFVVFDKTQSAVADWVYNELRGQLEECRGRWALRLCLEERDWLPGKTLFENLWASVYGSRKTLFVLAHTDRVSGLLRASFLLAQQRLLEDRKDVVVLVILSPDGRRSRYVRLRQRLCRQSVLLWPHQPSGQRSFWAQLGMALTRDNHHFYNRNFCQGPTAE
Outline: as §1

| Compound | IC50 [1] [nM] | IC50 [2] [nM] | IC50 [3] [nM] |
| --- | --- | --- | --- |
| CC(C)c1c(-c2cc(-c3cncnc3)c(=O)n(C)c2)[nH]c2ccc(C3CCN(C(C)C)CC3)cc12 [Example 244, 5-(3-isopropyl-5-(1-isopropylpiperidin-4-yl)-1H-indol-2-yl)-1-methyl-3-(pyrimidin-5-yl)pyridin-2(1H)-one] | 6 | 1.8 | 954 |
| CCCN1CCC(c2ccc3[nH]c(-c4cc(-c5cccnc5)c(=O)n(C)c4)c(C(C)C)c3c2)CC1 [Example 245, 5-(3-isopropyl-5-(1-propylpiperidin-4-yl)-1H-indol-2-yl)-1-methyl-[3,3′-bipyridin]-2(1H)-one] | 7.3 | 2 | 851 |
| CC(C)c1c(-c2cc(-c3cncnc3)c(=O)n(C)c2)[nH]c2ccc(C3CCN(C)CC3)cc12 [Example 246, 5-(3-isopropyl-5-(1-methylpiperidin-4-yl)-1H-indol-2-yl)-1-methyl-3-(pyrimidin-5-yl)pyridin-2(1H)-one] | 2.9 | 1.7 | 387 |
| CC(C)c1c(-c2cc(-c3cccnc3)c(=O)n(C)c2)[nH]c2ccc(C3CCN(C)CC3)cc12 [Example 247, 5-(3-isopropyl-5-(1-methylpiperidin-4-yl)-1H-indol-2-yl)-1-methyl-[3,3′-bipyridin]-2(1H)-one] | 3 | 4.1 | 864 |
| CC(C)CN1CCC(c2ccc3[nH]c(-c4cc(-c5cncnc5)c(=O)n(C)c4)c(C(C)C)c3c2)CC1 [Example 256, 5-(5-(1-isobutylpiperidin-4-yl)-3-isopropyl-1H-indol-2-yl)-1-methyl-3-(pyrimidin-5-yl)pyridin-2(1H)-one] | 12.4 | 1.7 | 1470 |
| CC(C)c1c(-c2cc(-c3cncnc3)c(=O)n(C)c2)[nH]c2ccc(C3CCN(CC4CCOC4)CC3)cc12 (stereo not drawn) [Example 257, 5-(3-isopropyl-5-(1-((tetrahydrofuran-3-yl)methyl)piperidin-4-yl)-1H-indol-2-yl)-1-methyl-3-(pyrimidin-5-yl)pyridin-2(1H)-one] | 15.6 | 1.1 | 1980 |

Second part, the molecule after the results:

| IC50 [1] [nM] | IC50 [2] [nM] | IC50 [3] [nM] | Compound |
| --- | --- | --- | --- |
| 1.4 | 9.1 | 1770 | Cc1c(-c2[nH]c3ccc(C4CCN(C(CCO)CCO)CC4)cc3c2C(C)C)cn(C)c(=O)c1Cl [Example 243, 3-chloro-5-(5-(1-(1,5-dihydroxypentan-3-yl)piperidin-4-yl)-3-isopropyl-1H-indol-2-yl)-1,4-dimethylpyridin-2(1H)-one] |
| 5.6 | 16.9 | 30000 | Cc1c(-c2[nH]c3ccc(C4CCN(C5COC5)CC4)cc3c2C(C)C)cn(C)c(=O)c1Cl [Example 248, 3-chloro-5-(3-isopropyl-5-(1-(oxetan-3-yl)piperidin-4-yl)-1H-indol-2-yl)-1,4-dimethylpyridin-2(1H)-one] |
| 6.3 | 4.8 | 3010 | Cc1c(-c2[nH]c3ccc(C4CCN(CC5CCCO5)CC4)cc3c2C(C)C)cn(C)c(=O)c1Cl (stereo not drawn) [Example 250, 3-chloro-5-(3-isopropyl-5-(1-((tetrahydrofuran-2-yl)methyl)piperidin-4-yl)-1H-indol-2-yl)-1,4-dimethylpyridin-2(1H)-one] |
| 3.5 | 8.1 | 3530 | CCCCN1CCC(c2ccc3[nH]c(-c4cn(C)c(=O)c(Cl)c4C)c(C(C)C)c3c2)CC1 [Example 251, 5-(5-(1-butylpiperidin-4-yl)-3-isopropyl-1H-indol-2-yl)-3-chloro-1,4-dimethylpyridin-2(1H)-one] |
| 4.2 | 2.7 | 2660 | Cc1c(-c2[nH]c3ccc(C4CCN(CC5CCOC5)CC4)cc3c2C(C)C)cn(C)c(=O)c1Cl (stereo not drawn) [Example 252, 3-chloro-5-(3-isopropyl-5-(1-((tetrahydrofuran-3-yl)methyl)piperidin-4-yl)-1H-indol-2-yl)-1,4-dimethylpyridin-2(1H)-one] |
| 6.1 | 5.2 | 1240 | Cc1c(-c2[nH]c3ccc(C4CCN(CC(O)CO)CC4)cc3c2C(C)C)cn(C)c(=O)c1Cl (stereo not drawn) [Example 253, 3-chloro-5-(5-(1-(2,3-dihydroxypropyl)piperidin-4-yl)-3-isopropyl-1H-indol-2-yl)-1,4-dimethylpyridin-2(1H)-one] |
| 5.5 | 2.1 | 2670 | Cc1c(-c2[nH]c3ccc(C4CCN(CC5CCOC5)CC4)cc3c2C(C)C)cn(C)c(=O)c1Cl (stereo not drawn) [Example 254, 3-chloro-5-(3-isopropyl-5-(1-((tetrahydrofuran-3-yl)methyl)piperidin-4-yl)-1H-indol-2-yl)-1,4-dimethylpyridin-2(1H)-one] |
| 4.8 | 2.3 | 1820 | Cc1c(-c2[nH]c3ccc(C4CCN(CC5CCOC5)CC4)cc3c2C(C)C)cn(C)c(=O)c1Cl (stereo not drawn) [Example 255, 3-chloro-5-(3-isopropyl-5-(1-((tetrahydrofuran-3-yl)methyl)piperidin-4-yl)-1H-indol-2-yl)-1,4-dimethylpyridin-2(1H)-one] |
